Columns and labels:
[1] = tested on: B6D2F1 and CF-1 mouse oocytes
Protocol: (§1) Hybrid B6D2F1 (C57BL/6×DBA/2) and outbred CF-1 female mice, 8-12 weeks of age, were used as oocyte donors. […] Females were induced to superovulate by intraperitoneal injection of 5 1U of pregnant mare serum gonadotropin (PMSG, Calbiochem) followed 48 h later by 5 1U of human chorionic gonadotropin (hCG, Calbiochem). MII oocytes were collected from oviducts 16-17 h after hCG administration in Hepes-buffered KSOM (H-KSOM, Specialty Media). Cumulus cells were dispersed by incubation in 150 units/ml of bovine testicular hyaluronidase (Sigma) in H-KSOM at 37° C. for 5 min. Cumulus-free oocytes were then washed three times in fresh H-KSOM and immediately activated.
(§2) Oocytes were parthenogenetically activated by a 5-min exposure to freshly prepared 7% (v/v) ethanol in H-KSOM at 37° C. and then washed twice in H-KSOM. Removal of oocytes from ethanol was considered as time zero post-activation (p.a.). To monitor meiotic progression, activated control oocytes (EtOH groups) were cultured for up to 2 h and 15 min and fixed at 30 min intervals, starting 45 min p.a. Culture of activated oocytes was at 37° C. under 5% COZ in air in KSOM medium containing 1 mg/ml BSA and amino acids (16; Specialty Media).
(§3) Fixed oocytes were stored until processing at 4 C. in a PBS blocking solution containing 1% BSA, 0.2% powdered milk, 2% normal goat serum, 0.1 M glycine, 0.2% sodium azide and 0.01% Triton X-100.
A triple labeling protocol was used for the detection of microtubules, microfilaments and chromatin by fluorescence microscopy. Oocytes were first incubated for 1 h at 37° C. in a mixture of mouse monoclonal anti a-tubulin and anti (3-tubulin antibodies (Sigma) at a 1:1000 final dilution. After several washes in 0.1% polyvinylpyrrolidone (PVP)/PBS at room temperature, oocytes were incubated at 37° C. in PBS blocking solution for 30 min and then in a 1:150 dilution of a donkey antimouse fluorescein-conjugated IgG (Jackson ImmunoResearch) for 45 min at 37° C. Oocytes were washed again several times in 0.1% PVP/PBS and incubated at 37° C. for 30 min in 10 units/ml of Texas Red-conjugated phalloidin (Molecular Probes) to stain actin filaments. Finally, after extensive washing in 0.1% PVP/PBS, oocytes were incubated at room temperature for 15 min in 10 μLg/ml Hoechst 33258 (Molecular Probes) and mounted in 50% glycerol/PBS containing 25 mg/ml sodium azide.
Labeled oocytes were examined using a Zeiss IM-35 inverted epi-fluorescence microscope fitted with filters selective for Hoechst, fluorescene and Texas Red and a 50 W mercury lamp. Selected images were acquired using a Photometrics Cool Snap CCD camera (Roper Scientific Inc., Trenton, N.J.) running on Metamorph software (version 5.0, Universal Imaging Corp., Downington, Pa.).
Data were analyzed by x^2 test or Fisher's exact test. A probability value of P<0.05 was considered to be statistically significant.
In vivo ovulated mouse oocytes (B6D2F1, n-959; CF 1, n=999) and in vitro matured goat oocytes (n-163) were denuded activated (7% ethanol) and incubated for up to 3.5 hr in KSOM.

[2] = tested on: B6D2F1 and CF-1 mouse oocytes; remark: listed apart in the source
Protocol: as §1, §2, §3
(§4) A triple labeling protocol was used for the detection of microtubules, microfilaments and chromatin by fluorescence microscopy. […]
(§5) Labeled oocytes were examined using a Zeiss IM-35 inverted epi-fluorescence microscope fitted with filters selective for Hoechst, fluorescene and Texas Red and a 50 W mercury lamp. […]
(§6) Data were analyzed by x^2 test or Fisher's exact test. […]

[3] = tested on: B6D2F1 and CF-1 mouse oocytes; test: Complete second polar body extrusion in ethanol-activated mouse oocytes treated with demecolcine; format: cell-based; details: demecolcine for only 15, 30 or 45 min, compared with continuous exposure; preliminary, unpublished
Protocol: as §1
Oocytes were parthenogenetically activated by a 5-min exposure to freshly prepared 7% (v/v) ethanol in H-KSOM at 37° C. and then washed twice in H-KSOM. Removal of oocytes from ethanol was considered as time zero post-activation (p.a.). […]
as §4, §5, §6

bovine oocytes = test: Induced enucleation (IE) of activated bovine oocytes by demecolcine; format: cell-based
[4] = tested on: bovine oocytes / NT embryos; test: In vitro development (7 days) of bovine NT embryos / parthenotes prepared with demecolcine; format: cell-based; details: for cleavage rate / morula/blastocyst rate: 7 days culture
Protocol: Progress has continued with experiments designed to compare in vitro development of control embryos (parthenotes) with that of reconstructed NT embryos prepared by conventional NT, telophase NT, IE and a novel simultaneous IE-NT paradigm (SIE/NT; see Table 1 below). As in all previous experiments, abattoir-sourced oocytes were obtained having been submitted to 26 h of maturation in ACM medi a @5%CO2 in air. Oocytes were denuded (enzyme/vortex) and activated (5 μM ionomyciin for 5 min, +/−CHX). See Example 2 for detail on methods. […] In the case of SIE/NT, donor karyoplasts (fibroblasts) were injected immediately prior to or immediately after activation. In vitro embryo development was evaluated over a period of 7 days.

[5] = IE group: fibroblast nuclei injected into IE cytoplasts 1.5-3 hpa
[6] = Induced Enucleation (IE): demecolcine 0.4 μg/ml 1.5-5 h p.a., nuclei injected 1.5-3 h p.a.
[7] = Simultaneous IE-NT (SIE/NT): karyoplasts injected immediately prior to or after activation
[8] = parthenogenetically activated and DM treated oocytes (control group)

Protocol for goat oocytes: This study was designed to characterize the kinetics and progressive phenotypes observed during induced enucleation (IE) of activated mouse and goat oocytes. In vivo ovulated mouse oocytes (B6D2F1, n-959; CF 1, n=999) and in vitro matured goat oocytes (n-163) were denuded activated (7% ethanol) and incubated for up to 3.5 hr in KSOM. […] At selected time points oocytes (n=11.50) were fixed/extracted and processed for immunofluorescence microscopy to document activation and meiotic progression based on spindle (microtubules), chromatin (H33258) and polar body (PB. microfilaments) phenotypes.

SMILES: CN[C@H]1CCc2cc(OC)c(OC)c(OC)c2-c2ccc(OC)c(=O)cc21 [demecolcine]
- enucleation rates of oocytes that completed second PB extrusion ([1]; CF-1, four treatments (onset 0-15 min p.a.), all time-points combined): ~80%
- rates of oocyte enucleation after short exposure ([1]; demecolcine for only 15, 30 or 45 min, compared with continuous exposure, preliminary, unpublished): reduced
- maximum IE rates ([1]; mouse oocytes exposed to demecolcine immediately after activation, strain-dependent): 23-100%
- time required for induced enucleation ([1]; murine oocytes): about 1.5 hours
- induced enucleation rate ([1]; murine oocytes, about 1.5 hours): greater than 50%
- oocytes showing complete spindle rotation ([2]; CF-1 and B6D2F1 treated oocytes, all treatments, 135 min p.a.): 0-9.6%
- oocytes in which spindle rotation is completed ([2]; demecolcine treated oocytes, both strains): less than 10%
- time after onset of treatment at which effect on the meiotic spindle was evident ([2]; smaller spindles, lower MT density than untreated activated oocytes): 15 min
- rates of second PB extrusion after short exposure [3]: slightly higher
- time required for induced enucleation (goat oocytes): about 5 hours
- induced enucleation rate (goat oocytes; 5 hours): greater than 80%
- maximum rate of IE (bovine oocytes; DM 0.4 μg/ml between 1.5 and 5hpa, at 5hpa): 91%
- IE rates (bovine oocytes; DM 0.4 μg/ml, varied onset and duration, at 5hpa): 60-91%
- induced enucleation rate (bovine oocytes; bovine oocytes, about 5 hours post-activation): greater than 80%
- time required for induced enucleation (bovine oocytes; bovine oocytes, post-activation): about 5 hours
- cleavage rate [4, 5]: 48%
- morula/blastocyst rate [4, 5]: 27%
- Blastocyst [4, 6]: 16%
- Cleavage [4, 6]: 49%
- Fragmented [4, 6]: 20%
- Morula [4, 6]: 17%
- Blastocyst [4, 7]: 25%
- Cleavage [4, 7]: 54%
- Fragmented [4, 7]: 18%
- cleavage rate [4, 8]: 49%
- morula/blastocyst rate [4, 8]: 30%

Reference: patent US7612250B2, “Nuclear transfer embryo formation method” (Trustees of Tufts College, priority 2002, dated 2009)
